How the values were obtained:
Type in all cases: biochemical
p110δ/p85α = p110δ/p85α (Homo sapiens (Human), UniProt O00329); assay: PI3K δ inhibition assay (TLC lipid kinase or HTRF)
Method: (§1) Class I PI3-Ks can be either purchased (p110α/p85α, p110β/p85α, p110δ/p85α from Upstate, and p110γ from Sigma) or expressed as previously described (Knight et al., 2004). IC50 values are measured using either a standard TLC assay for lipid kinase activity (described below) or a high-throughput membrane capture assay. Kinase reactions are performed by preparing a reaction mixture containing kinase, inhibitor (2% DMSO final concentration), buffer (25 mM HEPES, pH 7.4, 10 mM MgCl2), and freshly sonicated phosphatidylinositol (100 μg/ml). Reactions are initiated by the addition of ATP containing 10 μCi of γ-32P-ATP to a final concentration 10 or 100 μM and allowed to proceed for 5 minutes at room temperature. For TLC analysis, reactions are then terminated by the addition of […] 1N HCl followed by 160 μl CHCl3:MeOH (1:1). The biphasic mixture is vortexed, briefly centrifuged, and the organic phase is transferred to a new tube using a gel loading pipette tip precoated with CHCl3. This extract is spotted on TLC plates and developed for 3-4 hours in a 65:35 solution of n-propanol:1M acetic acid. The TLC plates are then dried, exposed to a phosphorimager screen (Storm, Amersham), and quantitated. For each compound, kinase activity is measured at 10-12 inhibitor concentrations representing two-fold dilutions from the highest concentration tested (typically, 200 μM).
(§2) Other commercial kits or systems for assaying PI3-K activities are available. The commercially available kits or systems can be used to screen for inhibitors and/or agonists of PI3-Ks including but not limited to PI 3-Kinase α, β, δ, and γ. Anr exemplary system is PI3-Kinase (human) HTRF™ Assay from Upstate. […] Briefly, the assay is a time resolved FRET assay that indirectly measures PIP3 product formed by the activity of a PI3-K. The kinase reaction is performed in a microtitre plate (e.g., a 384 well microtitre plate). The total reaction volume is approximately 20 ul per well. In the first step, each well receives 2 ul of test compound in 20% dimethylsulphoxide resulting in a 2% DMSO final concentration. Next, approximately 14.5 ul of a kinase/PIP2 mixture (diluted in 1× reaction buffer) is added per well for a final concentration of 0.25-0.3 ug/ml kinase and 10 uM PIP2. The plate is sealed and incubated for 15 minutes at room temperature. To start the reaction, 3.5 ul of ATP (diluted in 1× reaction buffer) is added per well for a final concentration of 10 uM ATP. The plate is sealed and incubated for 1 hour at room temperature. The reaction is stopped by adding 5 ul of Stop Solution per well and then 5 ul of Detection Mix is added per well. The plate is sealed, incubated for 1 hour at room temperature, and then read on an appropriate plate reader. Data is analyzed and IC50s are generated using GraphPad Prism 5.

p110γ = p110γ (Homo sapiens (Human), UniProt P48736); assay: PI3K γ inhibition assay (TLC lipid kinase or HTRF)
Method: as §1, §2

p110β/p85α = p110β/p85α (Homo sapiens, UniProt P42338); assay: PI3K β inhibition assay (TLC lipid kinase or HTRF); settings: read-out: PI3K β IC50
Method: as §1, §2

p110α/p85α = p110α/p85α (Homo sapiens (Human), UniProt P42336); assay: PI3K α inhibition assay (TLC lipid kinase or HTRF)
Method: as §1, §2

Chain of p110γ (P48736 whole entry): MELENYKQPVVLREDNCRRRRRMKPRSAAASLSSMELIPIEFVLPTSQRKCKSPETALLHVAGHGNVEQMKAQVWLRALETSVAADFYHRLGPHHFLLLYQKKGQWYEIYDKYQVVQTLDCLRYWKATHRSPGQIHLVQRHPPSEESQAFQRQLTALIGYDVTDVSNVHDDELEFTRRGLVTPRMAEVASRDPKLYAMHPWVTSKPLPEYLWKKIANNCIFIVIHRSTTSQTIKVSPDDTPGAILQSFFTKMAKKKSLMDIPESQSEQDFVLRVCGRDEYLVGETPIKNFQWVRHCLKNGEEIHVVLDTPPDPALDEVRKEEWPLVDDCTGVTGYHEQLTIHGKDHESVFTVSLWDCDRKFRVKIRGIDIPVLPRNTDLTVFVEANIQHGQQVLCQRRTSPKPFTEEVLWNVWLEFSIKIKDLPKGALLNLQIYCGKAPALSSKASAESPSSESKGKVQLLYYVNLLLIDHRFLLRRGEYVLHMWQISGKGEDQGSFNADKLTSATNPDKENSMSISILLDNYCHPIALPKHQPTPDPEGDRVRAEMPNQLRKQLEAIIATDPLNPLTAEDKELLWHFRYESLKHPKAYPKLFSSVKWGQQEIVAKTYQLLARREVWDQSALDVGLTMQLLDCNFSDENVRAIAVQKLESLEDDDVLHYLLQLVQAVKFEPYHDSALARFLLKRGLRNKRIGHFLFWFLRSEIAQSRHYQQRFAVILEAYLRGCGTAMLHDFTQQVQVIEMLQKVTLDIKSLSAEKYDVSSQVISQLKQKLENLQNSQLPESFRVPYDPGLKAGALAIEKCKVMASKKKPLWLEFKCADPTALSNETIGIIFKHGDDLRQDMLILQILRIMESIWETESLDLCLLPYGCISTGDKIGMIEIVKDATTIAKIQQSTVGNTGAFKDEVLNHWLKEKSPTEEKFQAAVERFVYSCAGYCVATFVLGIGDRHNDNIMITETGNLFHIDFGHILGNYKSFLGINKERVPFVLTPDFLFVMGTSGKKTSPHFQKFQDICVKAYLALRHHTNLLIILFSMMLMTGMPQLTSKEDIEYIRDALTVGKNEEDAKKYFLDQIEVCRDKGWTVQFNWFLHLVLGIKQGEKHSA
Chain of p110α/p85α (P42336 whole entry): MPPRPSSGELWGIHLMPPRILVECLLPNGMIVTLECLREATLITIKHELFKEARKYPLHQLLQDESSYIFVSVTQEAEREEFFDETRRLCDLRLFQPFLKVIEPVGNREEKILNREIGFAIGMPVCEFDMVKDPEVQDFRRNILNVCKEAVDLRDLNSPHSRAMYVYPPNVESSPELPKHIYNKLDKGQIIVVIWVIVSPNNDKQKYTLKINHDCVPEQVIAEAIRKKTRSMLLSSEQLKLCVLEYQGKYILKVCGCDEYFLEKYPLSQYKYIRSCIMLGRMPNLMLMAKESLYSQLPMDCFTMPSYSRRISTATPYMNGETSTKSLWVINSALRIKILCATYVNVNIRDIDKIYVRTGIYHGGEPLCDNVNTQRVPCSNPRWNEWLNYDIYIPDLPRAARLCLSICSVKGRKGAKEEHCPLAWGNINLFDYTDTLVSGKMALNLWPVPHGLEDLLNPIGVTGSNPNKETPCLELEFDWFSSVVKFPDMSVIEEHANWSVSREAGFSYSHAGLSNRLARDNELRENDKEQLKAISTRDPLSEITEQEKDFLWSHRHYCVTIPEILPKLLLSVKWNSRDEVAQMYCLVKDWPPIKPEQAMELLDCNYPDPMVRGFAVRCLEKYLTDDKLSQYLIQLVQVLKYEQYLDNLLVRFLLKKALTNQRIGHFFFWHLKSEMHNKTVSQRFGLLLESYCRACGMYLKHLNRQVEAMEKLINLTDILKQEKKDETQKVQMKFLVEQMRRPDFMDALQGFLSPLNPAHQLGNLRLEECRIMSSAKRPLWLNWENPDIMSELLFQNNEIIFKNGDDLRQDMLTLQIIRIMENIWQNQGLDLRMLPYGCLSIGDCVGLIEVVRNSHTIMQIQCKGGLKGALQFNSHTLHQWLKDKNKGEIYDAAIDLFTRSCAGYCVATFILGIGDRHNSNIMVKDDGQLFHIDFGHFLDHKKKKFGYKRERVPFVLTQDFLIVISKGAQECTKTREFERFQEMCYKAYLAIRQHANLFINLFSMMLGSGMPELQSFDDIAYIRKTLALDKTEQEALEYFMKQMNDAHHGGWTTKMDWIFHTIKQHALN
Chain of p110α/p85α (P27986 whole entry partner): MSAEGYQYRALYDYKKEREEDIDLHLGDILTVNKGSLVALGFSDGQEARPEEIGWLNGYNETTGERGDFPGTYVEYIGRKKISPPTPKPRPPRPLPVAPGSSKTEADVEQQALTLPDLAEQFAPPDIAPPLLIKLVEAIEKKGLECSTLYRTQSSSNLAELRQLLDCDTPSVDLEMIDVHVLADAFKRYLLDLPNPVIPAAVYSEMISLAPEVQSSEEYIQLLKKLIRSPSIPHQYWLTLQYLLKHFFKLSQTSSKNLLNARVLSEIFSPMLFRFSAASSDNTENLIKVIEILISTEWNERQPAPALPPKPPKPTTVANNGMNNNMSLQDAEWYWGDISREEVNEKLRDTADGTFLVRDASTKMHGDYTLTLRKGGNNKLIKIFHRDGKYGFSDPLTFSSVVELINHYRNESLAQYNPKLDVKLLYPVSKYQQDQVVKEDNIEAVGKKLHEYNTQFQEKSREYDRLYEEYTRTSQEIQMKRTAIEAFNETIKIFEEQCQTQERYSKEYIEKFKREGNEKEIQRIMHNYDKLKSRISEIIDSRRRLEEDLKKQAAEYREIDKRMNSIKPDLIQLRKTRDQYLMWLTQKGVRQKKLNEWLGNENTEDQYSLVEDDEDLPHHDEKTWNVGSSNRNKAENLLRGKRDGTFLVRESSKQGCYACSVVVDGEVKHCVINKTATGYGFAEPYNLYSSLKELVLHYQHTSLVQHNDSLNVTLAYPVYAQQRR
Chain of p110β/p85α (P42338 whole entry, looked up): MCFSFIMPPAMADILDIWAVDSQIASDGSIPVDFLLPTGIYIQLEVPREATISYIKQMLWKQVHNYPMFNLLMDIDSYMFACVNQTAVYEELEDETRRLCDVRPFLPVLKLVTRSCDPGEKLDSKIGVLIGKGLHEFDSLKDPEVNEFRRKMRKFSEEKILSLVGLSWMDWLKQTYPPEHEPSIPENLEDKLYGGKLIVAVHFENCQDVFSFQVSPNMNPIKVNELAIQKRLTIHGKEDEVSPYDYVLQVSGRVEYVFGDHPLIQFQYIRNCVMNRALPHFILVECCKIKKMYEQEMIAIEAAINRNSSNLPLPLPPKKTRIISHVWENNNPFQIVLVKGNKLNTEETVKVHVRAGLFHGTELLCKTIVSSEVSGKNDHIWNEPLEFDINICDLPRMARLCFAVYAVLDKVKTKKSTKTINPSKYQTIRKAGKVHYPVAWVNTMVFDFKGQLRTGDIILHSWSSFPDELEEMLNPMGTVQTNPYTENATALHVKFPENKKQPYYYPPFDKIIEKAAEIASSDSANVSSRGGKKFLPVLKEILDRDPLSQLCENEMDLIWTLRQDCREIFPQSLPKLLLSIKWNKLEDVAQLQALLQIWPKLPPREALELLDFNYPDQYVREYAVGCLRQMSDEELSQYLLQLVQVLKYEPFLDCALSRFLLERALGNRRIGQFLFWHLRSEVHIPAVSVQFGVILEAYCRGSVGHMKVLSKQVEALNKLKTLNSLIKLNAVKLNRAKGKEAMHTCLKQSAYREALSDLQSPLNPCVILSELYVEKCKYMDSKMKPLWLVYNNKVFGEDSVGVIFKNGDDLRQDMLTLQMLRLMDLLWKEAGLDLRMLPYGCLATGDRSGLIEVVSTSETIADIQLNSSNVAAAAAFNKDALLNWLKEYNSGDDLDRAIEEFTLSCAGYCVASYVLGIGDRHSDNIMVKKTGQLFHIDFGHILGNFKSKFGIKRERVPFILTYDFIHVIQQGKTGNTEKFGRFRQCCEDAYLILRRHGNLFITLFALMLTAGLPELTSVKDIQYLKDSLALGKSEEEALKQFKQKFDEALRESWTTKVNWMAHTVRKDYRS
Chain of p110δ/p85α (O00329 whole entry): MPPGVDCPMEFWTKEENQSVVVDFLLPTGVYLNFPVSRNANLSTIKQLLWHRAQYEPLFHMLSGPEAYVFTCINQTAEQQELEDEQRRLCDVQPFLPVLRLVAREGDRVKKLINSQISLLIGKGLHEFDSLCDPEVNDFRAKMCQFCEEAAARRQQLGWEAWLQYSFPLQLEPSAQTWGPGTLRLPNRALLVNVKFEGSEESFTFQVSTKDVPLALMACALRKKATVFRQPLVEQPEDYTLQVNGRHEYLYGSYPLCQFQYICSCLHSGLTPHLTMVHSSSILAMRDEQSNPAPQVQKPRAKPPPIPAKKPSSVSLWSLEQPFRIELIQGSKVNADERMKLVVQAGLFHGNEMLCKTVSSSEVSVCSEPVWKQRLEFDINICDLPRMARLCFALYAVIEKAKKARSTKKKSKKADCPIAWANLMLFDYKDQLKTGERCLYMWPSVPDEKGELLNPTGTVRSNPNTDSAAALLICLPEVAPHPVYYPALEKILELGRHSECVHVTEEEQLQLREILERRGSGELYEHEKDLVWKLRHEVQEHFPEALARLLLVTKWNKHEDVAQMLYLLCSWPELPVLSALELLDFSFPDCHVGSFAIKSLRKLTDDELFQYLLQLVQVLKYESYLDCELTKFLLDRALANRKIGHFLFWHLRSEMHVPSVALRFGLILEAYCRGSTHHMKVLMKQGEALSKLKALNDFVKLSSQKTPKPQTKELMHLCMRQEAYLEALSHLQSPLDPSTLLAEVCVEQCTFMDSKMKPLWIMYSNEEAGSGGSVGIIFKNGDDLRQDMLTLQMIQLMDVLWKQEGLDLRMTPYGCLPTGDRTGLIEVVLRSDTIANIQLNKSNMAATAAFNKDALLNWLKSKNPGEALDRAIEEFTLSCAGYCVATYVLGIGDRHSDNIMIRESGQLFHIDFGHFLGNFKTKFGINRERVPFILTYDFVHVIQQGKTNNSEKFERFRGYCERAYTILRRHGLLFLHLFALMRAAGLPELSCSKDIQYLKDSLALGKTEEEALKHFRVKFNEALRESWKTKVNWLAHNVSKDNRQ
Chain of p110δ/p85α (P27986 whole entry partner): as the sequence (P27986 whole entry partner) above

Row | Structure (SMILES) | IC50 (p110δ/p85α) | IC50 (p110γ) | IC50 (p110β/p85α) | IC50 (p110α/p85α)
1 | Nc1ncnc2c1c(-c1cc(O)cc(F)c1)nn2CCn1c(-c2ccccc2)nc2ccccc21 [Compound 126] | > 1 µM |  |  | 
2 | Nc1ncnc2c1c(-c1cccc(O)c1)nn2Cc1cc2ccccc2nc1-c1ccccc1F [Compound 91] | 0.1 to 1 µM | 0.1 to 1 µM | > 1 µM | > 1 µM
3 | N#Cc1nn(Cc2cc3ccccc3nc2-c2ccccc2F)c2ncnc(N)c12 [Compound 189] | > 1 µM |  | > 1 µM | > 1 µM
4 | Cn1c(=O)c(Cn2nc(-c3cc(O)cc(F)c3)c3c(N)ncnc32)cc2ccccc21 [Compound 112] | < 0.1 µM | 0.1 to 1 µM | > 1 µM | > 1 µM
5 | CCC(c1cc2ccccc2nc1-c1ccccc1)n1cnc2c(N)ncnc21 (stereo not drawn) [Compound 37] | > 1 µM | > 1 µM |  | 
6 | Cc1ccccc1-c1nc2ccccc2nc1Cn1nc(-c2cccc(O)c2)c2c(N)ncnc21 [Compound 108] | 0.1 to 1 µM | > 1 µM | > 1 µM | > 1 µM
7 | C[C@@H](O)C#Cc1nn(Cc2nc3ccccc3nc2N2CCCC2)c2ncnc(N)c12 [Compound 106] | 0.1 to 1 µM | > 1 µM |  | 
8 | Nc1ncnc2c1c(-c1ccccc1O)nn2Cc1cc2ccccc2nc1N1CCCC1 [Compound 21] | > 1 µM |  |  | 
9 | Nc1ncnc2c1c(-c1ccc(O)nc1)nn2Cc1cc2ccccc2nc1-c1ccccc1F [Compound 161] |  |  | > 1 µM | > 1 µM
10 | Nc1ncnc2c1c(-c1cccc(O)c1)nn2Cc1cccnc1N1CCCC1 [Compound 123] | > 1 µM |  |  | 
11 | COc1ccccc1-c1nc2ccccc2cc1Cn1nc(-c2cccc(O)c2)c2c(N)ncnc21 [Compound 14] | 0.1 to 1 µM |  |  | 
12 | Nc1ncnc2c1c(-c1ccnc(O)c1)nn2Cc1cc2ccccc2nc1-c1ccccc1F [Compound 177] | > 1 µM |  | > 1 µM | > 1 µM
13 | Nc1ncnc2c1c(-c1cc(O)cc(F)c1)nn2Cc1cc2ccccc2nc1NC1CCCC1 [Compound 33] | 0.1 to 1 µM |  |  | 
14 | NC(=O)c1cccc(-c2nn(Cc3cc4ccccc4nc3N3CCCC3)c3ncnc(N)c23)c1 [Compound 28] | > 1 µM |  |  | 
15 | CN(C)c1ncccc1Cn1nc(-c2cccc(O)c2)c2c(N)ncnc21 [Compound 122] | > 1 µM |  |  | 
16 | CC1CCCN1c1nc2ccccc2cc1Cn1ncc2c(N)ncnc21 (stereo not drawn) [Compound 188] | > 1 µM |  | > 1 µM | > 1 µM
17 | CC(=O)Nc1nc2ccc(-c3nn(Cc4cc5ccccc5nc4N4CCCC4)c4ncnc(N)c34)cc2s1 [Compound 24] |  |  |  | 0.1 to 1 µM
18 | C[C@@H](O)C#Cc1nn(Cc2cc3ccccc3nc2N2CCCC2)c2ncnc(N)c12 [Compound 41] | < 0.1 µM |  |  | 
19 | CN(C)c1ncccc1Cn1nc(-c2cc(O)cc(F)c2)c2c(N)ncnc21 [Compound 125] | > 1 µM |  |  | 
20 | Nc1ncnc2c1c(-c1cccc3[nH]ncc13)nn2Cc1cc2ccccc2nc1N1CCCC1 [Compound 58] | 0.1 to 1 µM | 0.1 to 1 µM |  | 
21 | Cc1ccccc1-c1ncccc1Cn1nc(-c2cc(O)cc(F)c2)c2c(N)ncnc21 [Compound 121] | > 1 µM |  |  | 
22 | CC(=O)Nc1cccc(-c2nn(Cc3cc4ccccc4nc3N3CCCC3)c3ncnc(N)c23)c1 [Compound 27] | > 1 µM |  |  | 
23 | Nc1ncc(-c2nn(Cc3cc4ccccc4nc3-c3ccccc3)c3nccc(N)c23)cn1 [Compound 160] | 0.1 to 1 µM |  | > 1 µM | > 1 µM

Second part, the compound after the results:

Row | IC50 (p110δ/p85α) | IC50 (p110γ) | IC50 (p110β/p85α) | IC50 (p110α/p85α) | Structure (SMILES)
24 | > 1 µM | > 1 µM |  |  | CC(c1cc2ccccc2nc1N1CCCC1)n1cnc2c(N)ncnc21 (stereo not drawn) [Compound 35]
25 |  |  | > 1 µM |  | Nc1ncnc2c1c(-c1cc(O)cc(F)c1)nn2Cc1cc2ccccc2nc1-c1ccccc1 [Compound 149]
26 | 0.1 to 1 µM | > 1 µM |  |  | CN1CCN(c2nc3ccccc3cc2Cn2nc(I)c3c(N)ncnc32)CC1 [Compound 44]
27 | 0.1 to 1 µM | > 1 µM |  |  | CCC(Nc1ncnc2[nH]cnc12)c1cc2ccccc2nc1N1CCCC1 (stereo not drawn) [Compound 53]
28 | < 0.1 µM | 0.1 to 1 µM | 0.1 to 1 µM | > 1 µM | CCc1nc2ccccc2cc1Cn1nc(-c2cc(O)cc(F)c2)c2c(N)ncnc21 [Compound 97]
29 | > 1 µM | > 1 µM |  |  | CCC(c1cc2ccccc2nc1N1CCCC1)n1cnc2c(N)ncnc21 (stereo not drawn) [Compound 36]
30 | < 0.1 µM | < 0.1 µM | 0.1 to 1 µM | > 1 µM | Cc1cccc2cc(Cn3nc(-c4cccc(O)c4)c4c(N)ncnc43)c(N3CCOCC3)nc12 [Compound 66]
31 | > 1 µM |  |  |  | C[C@@H](O)C#Cc1nn(Cc2cc3ccccc3nc2N2CCN(C)CC2)c2ncnc(N)c12 [Compound 51]
32 | < 0.1 µM | > 1 µM | > 1 µM | > 1 µM | Nc1ncnc2c1c(-c1cc(O)cc(F)c1)nn2Cc1cc2ccccc2[nH]c1=O [Compound 114]
33 | 0.1 to 1 µM | > 1 µM | > 1 µM | > 1 µM | CC(C)n1c(=O)c(Cn2nc(-c3cccc(O)c3)c3c(N)ncnc32)cc2ccccc21 [Compound 110]
34 |  |  | < 0.1 µM | < 0.1 µM | CC(C)N1CCN(c2nc3ccccc3cc2Cn2nc(-c3ccc4nc(N)sc4c3)c3c(N)ncnc32)CC1 [Compound 164]
35 | > 1 µM |  |  |  | Nc1ncnc2c1c(-c1cccc(O)c1)nn2Cc1cc2c(nc1-c1ccccc1F)CCC2 [Compound 102]
36 | > 1 µM |  |  |  | Nc1ncnc2c1c(-c1cc(F)ccc1O)nn2Cc1cc2ccccc2nc1N1CCCC1 [Compound 22]
37 | > 1 µM |  | > 1 µM | > 1 µM | Nc1cc(-c2nn(Cc3cc4ccccc4nc3-c3ccccc3)c3ncnc(N)c23)ccn1 [Compound 173]
38 | > 1 µM |  | > 1 µM | > 1 µM | Nc1ncnc2c1c(-c1ccnc(O)c1)nn2Cc1cc2ccccc2nc1-c1ccccc1 [Compound 178]
39 | > 1 µM |  |  |  | COc1ccccc1-c1nc2ccccc2cc1Cn1nc(C#C[C@@H](C)O)c2c(N)ncnc21 [Compound 18]
40 | > 1 µM |  |  |  | Nc1ncnc2c1c(I)nn2Cc1cc2c(nc1-c1ccccc1F)CCC2 [Compound 100]
41 | > 1 µM | > 1 µM |  |  | C[C@@H](O)C#Cc1nc2ccccc2nc1Cn1nc(C#C[C@@H](C)O)c2c(N)ncnc21 [Compound 103]
42 | > 1 µM |  |  |  | Cc1ccccc1-c1ncccc1Cn1nc(-c2cccc(O)c2)c2c(N)ncnc21 [Compound 120]
43 |  |  | < 0.1 µM | 0.1 to 1 µM | CC(=O)Nc1nc2ccc(-c3nn(Cc4cc5ccccc5nc4N4CCN(C(C)C)CC4)c4ncnc(N)c34)cc2s1 [Compound 163]
44 | > 1 µM |  |  |  | Nc1ncnc2c1c(-c1cc(O)cc(F)c1)nn2Cc1cccnc1N1CCCC1 [Compound 124]
45 |  |  | 0.1 to 1 µM |  | CN1CCN(c2nc3ccccc3cc2Cn2nc(-c3cc(O)cc(F)c3)c3c(N)ncnc32)CC1 [Compound 197]
46 | 0.1 to 1 µM | 0.1 to 1 µM |  |  | Nc1ncnc2c1c(-c1cccnc1)nn2Cc1cc2ccccc2nc1N1CCCC1 [Compound 62]
47 | > 1 µM |  | > 1 µM | > 1 µM | Nc1cc(-c2nn(Cc3cc4ccccc4nc3-c3ccccc3F)c3ncnc(N)c23)ccn1 [Compound 172]
48 |  |  | > 1 µM | > 1 µM | NC1=NC=NC2C1C(c1ccc(O)nc1)=NN2Cc1cc2ccccc2nc1-c1ccccc1 (stereo not drawn) [Compound 162]
49 | 0.1 to 1 µM | 0.1 to 1 µM |  | > 1 µM | CC(=O)Nc1nc2ccc(-c3nn(Cc4cc5ccccc5nc4-c4ccccc4F)c4ncnc(N)c34)cc2[nH]1 [Compound 183]
